Experimental data: ChEMBL document CHEMBL5614367, “Hydroxamic acid hybrids: Histone deacetylase inhibitors with anticancer therapeutic potency” (Eur J Med Chem, 2023)
Each block holds one compound with its values, some of them ahead of it.

How the values were obtained:
HEL = experiment: Antiproliferative activity against human HEL cells measured after 72 hrs by CCK-8 assay; format: functional, cell-based
SU-DHL-2 = experiment: Antiproliferative activity against human SU-DHL-2 cells measured after 72 hrs by CCK-8 assay; format: functional, cell-based; settings: SU-DHL-2, 72 h
K562 = experiment: Antiproliferative activity against human K562 cells measured after 72 hrs by CCK-8 assay; format: functional, cell-based; settings: K562, 72 h
MV4-11 = experiment: Antiproliferative activity against human MV4-11 cells measured after 72 hrs by CCK-8 assay; format: functional, cell-based; settings: MV4-11, 72 h
WSUDLCL2 [1] = experiment: Antitumor activity against human WSUDLCL2 cells xenografted in mouse assessed as tumor growth inhibition at 50 mg/kg, ip administered for 21 days; format: functional; settings: WSUDLCL2, 504 h, time 21 day, read-out: TGI
WSUDLCL2 [2] = experiment: Antiproliferative activity against human WSUDLCL2 cells measured after 72 hrs by CCK-8 assay; format: functional, cell-based; settings: WSUDLCL2, 72 h
MDA-MB-231 = experiment: Antiproliferative activity against human MDA-MB-231 cells
A549 [3] = experiment: Antiproliferative activity against human A549 cells
MM96L = experiment: Antiproliferative activity against human MM96L cells; format: functional, cell-based
HT-29 = experiment: Antiproliferative activity against human HT-29 cells; format: functional, cell-based
HeLa = experiment: Antiproliferative activity against human HeLa cells; format: functional, cell-based
Histone deacetylase 2 [4] = molecular target: T1, Histone deacetylase 2 (Homo sapiens, UniProt Q92769); experiment: Inhibition of HDAC2 (unknown origin)
T1 sequence (Q92769 whole entry): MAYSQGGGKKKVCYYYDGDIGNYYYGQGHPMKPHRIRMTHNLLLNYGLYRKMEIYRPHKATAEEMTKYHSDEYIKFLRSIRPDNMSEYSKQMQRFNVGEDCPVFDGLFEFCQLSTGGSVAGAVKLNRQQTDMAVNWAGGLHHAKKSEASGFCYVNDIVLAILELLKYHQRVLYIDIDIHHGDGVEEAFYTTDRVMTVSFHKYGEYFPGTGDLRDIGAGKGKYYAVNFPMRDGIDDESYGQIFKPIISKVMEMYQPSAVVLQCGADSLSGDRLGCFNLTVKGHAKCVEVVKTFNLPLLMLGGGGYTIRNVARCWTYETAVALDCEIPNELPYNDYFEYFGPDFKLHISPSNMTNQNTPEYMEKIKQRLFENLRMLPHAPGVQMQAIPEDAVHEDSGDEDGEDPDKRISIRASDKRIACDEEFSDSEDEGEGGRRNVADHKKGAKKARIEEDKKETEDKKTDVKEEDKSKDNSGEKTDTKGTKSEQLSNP

[5] = Cytotoxicity against human NFF cells; format: toxicity, cell-based
A549 [6] = experiment: Antiproliferative activity against human A549 cells assessed as inhibition of cell growth incubated for 48 hrs by SRB assay; format: functional, cell-based; settings: A549, 48 h
HCT-116 [7] = experiment: cells; format: functional, cell-based; settings: Homo sapiens, HCT-116, 48 h
[8] = molecular target: T2, Protein deacetylase HDAC6 (Homo sapiens, UniProt Q9UBN7); experiment: Inhibition of human recombinant HDAC6 using Fluor-de-Lys deacetylase as substrate by Spectrofluorimetry
T2 sequence (Q9UBN7 whole entry): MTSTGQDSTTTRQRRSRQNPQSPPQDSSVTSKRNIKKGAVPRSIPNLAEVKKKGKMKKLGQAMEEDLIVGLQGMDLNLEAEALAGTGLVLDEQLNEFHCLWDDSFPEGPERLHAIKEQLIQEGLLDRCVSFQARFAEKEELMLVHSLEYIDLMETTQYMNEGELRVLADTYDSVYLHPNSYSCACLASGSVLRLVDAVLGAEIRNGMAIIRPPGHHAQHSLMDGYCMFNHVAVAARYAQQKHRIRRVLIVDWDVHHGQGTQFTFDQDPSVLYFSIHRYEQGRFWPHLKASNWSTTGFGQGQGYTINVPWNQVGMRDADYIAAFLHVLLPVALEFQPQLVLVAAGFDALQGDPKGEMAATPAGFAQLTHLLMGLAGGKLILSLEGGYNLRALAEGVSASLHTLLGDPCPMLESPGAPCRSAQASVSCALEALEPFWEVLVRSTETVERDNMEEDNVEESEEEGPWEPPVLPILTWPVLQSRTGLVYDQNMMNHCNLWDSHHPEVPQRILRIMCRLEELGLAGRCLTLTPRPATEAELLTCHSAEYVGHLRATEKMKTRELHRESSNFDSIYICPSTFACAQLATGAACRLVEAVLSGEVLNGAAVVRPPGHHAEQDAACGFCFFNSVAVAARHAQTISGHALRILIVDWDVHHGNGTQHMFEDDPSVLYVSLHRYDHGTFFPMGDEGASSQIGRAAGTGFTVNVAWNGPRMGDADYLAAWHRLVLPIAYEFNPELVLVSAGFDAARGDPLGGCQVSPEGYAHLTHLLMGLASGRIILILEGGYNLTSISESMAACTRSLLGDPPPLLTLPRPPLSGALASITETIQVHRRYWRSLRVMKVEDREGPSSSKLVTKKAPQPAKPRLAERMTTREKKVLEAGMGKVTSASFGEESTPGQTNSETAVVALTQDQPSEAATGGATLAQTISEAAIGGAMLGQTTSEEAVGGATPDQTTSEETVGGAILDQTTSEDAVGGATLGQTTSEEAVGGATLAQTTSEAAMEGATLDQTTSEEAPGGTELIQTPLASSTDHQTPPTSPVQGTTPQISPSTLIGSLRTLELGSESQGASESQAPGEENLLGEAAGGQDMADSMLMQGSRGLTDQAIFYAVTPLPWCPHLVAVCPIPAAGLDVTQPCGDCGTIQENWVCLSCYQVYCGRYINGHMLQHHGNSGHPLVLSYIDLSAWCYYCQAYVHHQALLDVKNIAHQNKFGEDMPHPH

PC-3 [9] = experiment: Antiproliferative activity against human PC-3 cells; format: functional, cell-based
[10] = molecular target: T2, Protein deacetylase HDAC6; experiment: Inhibition of HDAC6 (unknown origin)
SW-620 [11] = experiment: Antiproliferative activity against human SW620 cells; format: functional, cell-based
HepG2 = experiment: cells; format: functional, cell-based; settings: Homo sapiens, HepG2, 72 h
HGC-27 = experiment: cells; format: functional, cell-based; settings: Homo sapiens, HGC-27, 72 h
HL-60 = experiment: cells; format: functional, cell-based; settings: Homo sapiens, HL-60, 72 h
Histone deacetylase 2 [12] = molecular target: T1, Histone deacetylase 2; experiment: Inhibition of HDAC2 (unknown origin) incubated for 30 mins by fluorescence based microplate reader analysis
[13] = Cytotoxicity against human CCC-HEL-1 cells assessed as inhibition of cell growth incubated for 72 hrs by MTT assay; format: toxicity, cell-based
[14] = molecular target: T2, Protein deacetylase HDAC6; experiment: Inhibition of HDAC6 (unknown origin) incubated for 30 mins by fluorescence based microplate reader analysis
Histone deacetylase 3 = Histone deacetylase 3 (Homo sapiens, UniProt O15379); experiment: Inhibition of HDAC3 (unknown origin) incubated for 30 mins by fluorescence based microplate reader analysis
Sequence of Histone deacetylase 3 (O15379 whole entry): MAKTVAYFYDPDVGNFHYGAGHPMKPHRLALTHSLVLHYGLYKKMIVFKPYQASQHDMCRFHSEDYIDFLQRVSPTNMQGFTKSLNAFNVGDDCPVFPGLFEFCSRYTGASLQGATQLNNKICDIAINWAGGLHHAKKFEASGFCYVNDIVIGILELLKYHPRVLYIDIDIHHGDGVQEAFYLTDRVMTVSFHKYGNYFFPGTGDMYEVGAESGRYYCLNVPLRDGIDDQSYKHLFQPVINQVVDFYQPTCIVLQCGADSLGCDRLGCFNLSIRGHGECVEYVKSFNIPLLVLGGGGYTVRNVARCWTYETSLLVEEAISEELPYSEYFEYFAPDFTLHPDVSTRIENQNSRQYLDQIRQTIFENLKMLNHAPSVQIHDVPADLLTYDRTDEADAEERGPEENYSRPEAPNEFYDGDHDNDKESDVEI

A549 [15] = experiment: cells; format: functional, cell-based; settings: Homo sapiens, A549, 72 h
KYSE-30 = experiment: cells; format: functional, cell-based; settings: Homo sapiens, KYSE-30, 72 h
Raji = experiment: cells; format: functional, cell-based; settings: Homo sapiens, 72 h
TPC1 = experiment: cells; format: functional, cell-based; settings: Homo sapiens, TPC1, 72 h
A549 [16] = experiment: Antitumor activity against human A549 cells xenografted in zebrafish model assessed as inhibition of cell proliferation incubated for 5 days by fluorescence microscopic analysis; format: functional, cell-based; settings: A549, 120 h
[17] = Cytotoxicity against rat H9c2 cells assessed as inhibition of cell growth incubated for 72 hrs by MTT assay; format: toxicity, cell-based
A549 [18] = experiment: Antiproliferative activity against human A549 cells measured after 72 hrs by MTT assay; format: functional, cell-based; settings: A549, 72 h
MCF7 = experiment: Antiproliferative activity against human MCF7 cells measured after 72 hrs by MTT assay; format: functional, cell-based; settings: MCF7, 72 h
Histone deacetylase 1 = Histone deacetylase 1 (Homo sapiens, UniProt Q13547); experiment: Inhibition of HDAC1 (unknown origin) using Ac-peptide as substrate pretreated for 15 mins followed by substrate addition and measured after 60 mins
Sequence of Histone deacetylase 1 (Q13547 whole entry): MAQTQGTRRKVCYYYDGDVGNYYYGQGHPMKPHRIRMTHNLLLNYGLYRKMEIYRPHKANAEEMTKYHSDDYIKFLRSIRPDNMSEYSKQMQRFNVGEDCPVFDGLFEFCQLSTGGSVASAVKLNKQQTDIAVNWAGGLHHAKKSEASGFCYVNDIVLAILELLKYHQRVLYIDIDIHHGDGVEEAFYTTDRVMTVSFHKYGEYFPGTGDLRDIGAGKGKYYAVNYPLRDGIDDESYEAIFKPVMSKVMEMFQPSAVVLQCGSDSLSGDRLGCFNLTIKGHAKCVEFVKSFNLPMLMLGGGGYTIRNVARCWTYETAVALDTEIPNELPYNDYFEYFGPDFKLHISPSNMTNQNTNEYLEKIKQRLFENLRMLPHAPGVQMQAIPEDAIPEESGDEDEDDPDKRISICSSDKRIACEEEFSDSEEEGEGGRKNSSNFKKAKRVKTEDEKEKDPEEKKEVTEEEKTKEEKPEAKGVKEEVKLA

HCT-116 [19] = experiment: Antiproliferative activity against human HCT-116 cells measured after 72 hrs by MTT assay; format: functional, cell-based; settings: HCT-116, 72 h
SW-620 [20] = experiment: Antiproliferative activity against human SW620 cells incubated for 48 hrs by colorimetric method; format: functional, cell-based; settings: SW-620, 48 h
143B = experiment: Antiproliferative activity against human 143B cells; format: functional
PC-3 [21] = experiment: Antiproliferative activity against human PC-3 cells incubated for 48 hrs by colorimetric method; format: functional, cell-based; settings: PC-3, 48 h
HOS = experiment: Antiproliferative activity against human HOS cells; format: functional
NCI-H23 = experiment: Antiproliferative activity against human NCI-H23 cells incubated for 48 hrs by colorimetric method; format: functional, cell-based; settings: NCI-H23, 48 h
SAOS-2 = experiment: Antiproliferative activity against human SAOS-2 cells; format: functional

Compound: C=C[C@@]1(C)CC[C@H](C(=C)CN2CCN(C(=O)CCCCCCC(=O)NO)CC2)C[C@@H]1C(=C)Cn1cccn1
IC50 (HEL): 790 nM | IC50 (SU-DHL-2): 790 nM | IC50 (K562): 790 nM | IC50 (MV4-11): 790 nM | inhibition in vivo at 50 mg/kg (WSUDLCL2 [1]): 31.5% | IC50 (WSUDLCL2 [2]): 790 nM

Compound: O=C(/C=C/c1ccc2nn(Cc3ccc(Cl)cc3)cc2c1)NO
IC50 (MDA-MB-231): 196 nM | IC50 (PC-3 [9]): 196 nM | IC50 [10]: 231 nM | IC50 (SW-620 [11]): 196 nM

Compound: O=C(CCCCCCC(=O)Nc1nc2c(s1)C[C@@H](NC(=O)c1cccc3ccccc13)CC2)NO
IC50 (HepG2): 1220 nM | IC50 (HGC-27): 1220 nM | IC50 (HL-60): 1220 nM | IC50 (Histone deacetylase 2 [12]): 1.4 nM | IC50 at 72 h [13]: 24400 nM | IC50 [14]: 1.4 nM | IC50 (Histone deacetylase 3): 1.4 nM | IC50 (A549 [15]): 1220 nM | IC50 (KYSE-30): 1220 nM | IC50 (Raji): 1220 nM | IC50 (TPC1): 1220 nM | IC50 (A549 [16]): 1500 nM | IC50 at 72 h [17]: 43800 nM

Further lines, with some results ahead:

IC50 (MDA-MB-231): 50 nM | IC50 (A549 [3]): 50 nM | IC50 (HT-29): 50 nM | IC50 (HeLa): 50 nM | IC50 (Histone deacetylase 2 [4]): 2 nM
Compound: O=C(NO)c1ccc(NC(=O)C2(c3ccc(-c4cn[nH]c4)cc3)CCCCC2)cc1
IC50 (MM96L): 50 nM | IC50 [5]: 50 nM

IC50 (A549 [6]): 1290 nM | IC50 (HCT-116 [7]): 1290 nM | IC50 [8]: 8.16 nM
Compound: O=C(NO)c1ccc(CNc2cccc3cc(-c4ccncc4)cnc23)cc1

IC50 (A549 [18]): 280 nM | IC50 (MCF7): 280 nM | IC50 (Histone deacetylase 1): 27 nM | IC50 (HCT-116 [19]): 280 nM
Compound: COc1cc2c(Oc3ccc(NC(=O)C4CCN(c5ccc(F)cc5)C4=O)cc3)ccnc2cc1OCCCCCCC(=O)NO (stereo not drawn)

IC50 (SW-620 [20]): 2530 nM | IC50 (PC-3 [21]): 2530 nM | IC50 (NCI-H23): 2530 nM
Compound: O=C(/C=C/c1cccc(S(=O)(=O)Nc2ccccc2)c1)NO [BELINOSTAT]
GI50 (143B): 3300 nM | GI50 (HOS): 3300 nM | GI50 (SAOS-2): 3300 nM
